The text below walks through data of patent US20230080811A1 (priority 2020, published 2023).

The data set in a line: In vivo pharmacokinetic investigation, subcutaneous injection, plasma by LC-MS. More on the design: species or system rat. As to conditions: in rats, inferred from PK and duration of efficacy. On the procedure: The obtained pharmaceutical composition was subcutaneously injected into male SD rats. Blood was collected at predetermined time points. The content of the drug in plasma was determined by LC-MS method, and the pharmacokinetics in vivo was investigated.
Experimental animals: male SD rats with a weight of 200-300 g, source: […] OF MATERIA MEDICA, CHINESE ACADEMY OF SCIENCES;
Experimental grouping: Rats were randomly divided into groups according to the following table, with 6 rats in each group;
Experimental procedure: Rats were subcutaneously injected, and at a predetermined time point, 0.5 ml of blood was collected from the orbit of the rat and placed in a centrifuge tube with heparin sodium anticoagulation. The tube was centrifuged at 3000 rpm for 10 min to separate the plasma, and the plasma concentration was detected by LC-MS method.
The pharmacokinetic (PK) parameters of the compositions were calculated, and the results were statistically analyzed by t-test.

Structures can show the parent of a compound that is named as a salt.

On to `CCCN1CCCC[C@H]1C(=O)Nc1c(C)cccc1C` [ropivacaine hydrochloride], for which the onset concentration entry was “about 20 ng/ml”.
